Assay results taken from ChEMBL document CHEMBL1124125, “6-(Alkylamino)-3-aryl-1,2,4-triazolo[3,4-a]phthalazines. A new class of benzodiazepine receptor ligands” (J Med Chem, 1988).

What was measured:
[1] = system: Mus musculus; assay: Activity was measured by rotarod test by intraperitoneal administration in mouse.; type: functional; settings: ip
[2] = system: Rattus norvegicus; assay: Activity was measured by rotarod test by peroral administration in rat; type: functional; settings: po
[3] = organism: Mus musculus; assay: Anticonvulsant activity when maximal electroshock is induced in mouse; type: functional
[4] = system: Mus musculus; assay: Anticonvulsant activity when bicuculline given subcutaneously in mouse; type: functional; settings: sc
[5] = system: Mus musculus; assay: Anticonvulsant activity when lethal dose of strychnine given subcutaneously in mouse; type: ADME, organism-based; settings: in vivo, sc

**Q.** For `CNC1=Nc2ccc(Cl)cc2C(c2ccccc2)=[N+]([O-])C1` [CHLORDIAZEPOXIDE], which ED50 [1] is on record?
**A.** 11 mg/kg

**Q.** And the ED50 [2]?
**A.** 68.4 mg/kg

**Q.** What about the ED50 [3] of the same compound?
**A.** 23 mg/kg

**Q.** What about the ED50 [4] of the same compound?
**A.** 4.7 mg/kg

**Q.** What about the ED50 [5] of the same compound?
**A.** 7.5 mg/kg
